Data: patent US11547697B2, “Heterocyclic compounds and uses thereof” (MILLENNIUM PHARMACEUTICALS, INC., priority 2009, dated 2023)
Read-outs that look alike come from different tables or passages of the source.

Legend:
[1] = target: p110α/p85α (Homo sapiens (Human), UniProt P42336); assay: PI 3-Kinase (human) HTRF assay, p110α/p85α; assay type: biochemical
[2] = target: p110γ (Homo sapiens (Human), UniProt P48736); assay: PI 3-Kinase (human) HTRF assay, p110γ; assay type: biochemical
[3] = target: recombinant mTOR (Homo sapiens (Human), UniProt P42345); assay: mTOR inhibition assay (radiometric or LanthaScreen TR-FRET); assay type: biochemical; conditions: read-out: MTORC IC50
[4] = target: p110β/p85α (Homo sapiens (Human), UniProt P42338); assay: PI 3-Kinase (human) HTRF assay, p110β/p85α; assay type: biochemical; conditions: read-out: PI3K β In Vitro IC50
[5] = target: p110δ/p85α (Homo sapiens (Human), UniProt O00329); assay: PI 3-Kinase (human) HTRF assay, p110δ/p85α; assay type: biochemical; conditions: read-out: PI3K δ In Vitro IC50
[6] = system: tumor cells with a PI3Kα mutation (e.g., MDA-MB-361 and T47D); assay: Proliferation of tumor cells with PI3Kα mutation; assay type: cell-based; conditions: Homo sapiens, PC3; read-out: PC3 proliferation In Vitro IC50

Sequence of p110γ (P48736 whole entry): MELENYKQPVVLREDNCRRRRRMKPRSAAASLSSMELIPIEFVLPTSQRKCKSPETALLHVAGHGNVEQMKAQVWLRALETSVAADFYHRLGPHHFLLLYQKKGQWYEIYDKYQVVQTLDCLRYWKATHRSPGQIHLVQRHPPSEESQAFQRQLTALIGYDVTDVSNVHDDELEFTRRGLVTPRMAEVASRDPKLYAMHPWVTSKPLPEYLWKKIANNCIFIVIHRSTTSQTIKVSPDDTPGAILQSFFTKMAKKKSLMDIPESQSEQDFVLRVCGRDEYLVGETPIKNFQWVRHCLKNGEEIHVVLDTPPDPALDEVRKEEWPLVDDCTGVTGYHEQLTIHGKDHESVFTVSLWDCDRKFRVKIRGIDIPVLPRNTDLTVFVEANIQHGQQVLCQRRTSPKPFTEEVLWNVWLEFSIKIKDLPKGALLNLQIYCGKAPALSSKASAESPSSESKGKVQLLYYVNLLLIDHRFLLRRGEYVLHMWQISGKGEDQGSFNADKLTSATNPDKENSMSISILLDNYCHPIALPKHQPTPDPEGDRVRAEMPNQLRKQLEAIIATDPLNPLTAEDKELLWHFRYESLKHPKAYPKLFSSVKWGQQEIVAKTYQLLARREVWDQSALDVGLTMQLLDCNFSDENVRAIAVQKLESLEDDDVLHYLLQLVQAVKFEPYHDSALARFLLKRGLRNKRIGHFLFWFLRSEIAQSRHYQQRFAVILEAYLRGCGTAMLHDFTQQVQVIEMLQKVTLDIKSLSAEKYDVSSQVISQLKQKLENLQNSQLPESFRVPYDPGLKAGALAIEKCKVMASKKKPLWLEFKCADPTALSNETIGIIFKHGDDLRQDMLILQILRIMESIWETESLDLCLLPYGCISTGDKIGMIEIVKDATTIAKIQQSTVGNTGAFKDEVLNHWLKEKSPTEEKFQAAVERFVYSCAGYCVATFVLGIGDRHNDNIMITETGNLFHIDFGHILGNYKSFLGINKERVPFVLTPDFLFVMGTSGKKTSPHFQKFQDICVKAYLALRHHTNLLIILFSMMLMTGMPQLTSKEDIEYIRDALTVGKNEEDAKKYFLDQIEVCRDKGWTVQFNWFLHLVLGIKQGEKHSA
Sequence of p110β/p85α (P42338 whole entry): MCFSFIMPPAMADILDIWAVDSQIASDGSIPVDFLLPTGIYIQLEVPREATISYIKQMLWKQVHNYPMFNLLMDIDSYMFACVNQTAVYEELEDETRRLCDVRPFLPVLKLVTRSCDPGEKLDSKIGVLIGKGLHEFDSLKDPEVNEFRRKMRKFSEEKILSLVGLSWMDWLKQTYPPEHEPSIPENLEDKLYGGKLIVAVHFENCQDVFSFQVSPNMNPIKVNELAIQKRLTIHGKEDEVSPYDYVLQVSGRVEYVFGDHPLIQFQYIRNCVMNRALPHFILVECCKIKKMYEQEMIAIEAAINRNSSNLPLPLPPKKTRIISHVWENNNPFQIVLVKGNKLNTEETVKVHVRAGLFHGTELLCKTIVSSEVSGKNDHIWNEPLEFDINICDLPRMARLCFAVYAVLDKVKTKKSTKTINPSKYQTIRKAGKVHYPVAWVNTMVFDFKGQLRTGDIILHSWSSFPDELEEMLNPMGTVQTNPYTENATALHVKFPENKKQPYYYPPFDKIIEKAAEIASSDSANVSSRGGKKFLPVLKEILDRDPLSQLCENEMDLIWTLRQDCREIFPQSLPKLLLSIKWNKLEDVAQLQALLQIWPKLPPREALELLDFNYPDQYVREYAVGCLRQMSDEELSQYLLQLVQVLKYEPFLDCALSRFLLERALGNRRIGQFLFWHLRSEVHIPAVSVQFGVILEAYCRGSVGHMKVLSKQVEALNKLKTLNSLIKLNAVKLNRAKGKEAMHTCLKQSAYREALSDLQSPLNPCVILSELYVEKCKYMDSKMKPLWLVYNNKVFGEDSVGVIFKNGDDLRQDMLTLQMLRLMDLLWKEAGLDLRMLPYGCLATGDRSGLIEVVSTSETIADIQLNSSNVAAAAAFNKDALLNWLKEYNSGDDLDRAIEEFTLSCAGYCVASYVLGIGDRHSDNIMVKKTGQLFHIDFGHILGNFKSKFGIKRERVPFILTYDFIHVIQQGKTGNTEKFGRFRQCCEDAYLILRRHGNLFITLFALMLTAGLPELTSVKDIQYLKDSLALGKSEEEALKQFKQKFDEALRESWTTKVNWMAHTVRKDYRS
Sequence of p110β/p85α (P27986 whole entry partner): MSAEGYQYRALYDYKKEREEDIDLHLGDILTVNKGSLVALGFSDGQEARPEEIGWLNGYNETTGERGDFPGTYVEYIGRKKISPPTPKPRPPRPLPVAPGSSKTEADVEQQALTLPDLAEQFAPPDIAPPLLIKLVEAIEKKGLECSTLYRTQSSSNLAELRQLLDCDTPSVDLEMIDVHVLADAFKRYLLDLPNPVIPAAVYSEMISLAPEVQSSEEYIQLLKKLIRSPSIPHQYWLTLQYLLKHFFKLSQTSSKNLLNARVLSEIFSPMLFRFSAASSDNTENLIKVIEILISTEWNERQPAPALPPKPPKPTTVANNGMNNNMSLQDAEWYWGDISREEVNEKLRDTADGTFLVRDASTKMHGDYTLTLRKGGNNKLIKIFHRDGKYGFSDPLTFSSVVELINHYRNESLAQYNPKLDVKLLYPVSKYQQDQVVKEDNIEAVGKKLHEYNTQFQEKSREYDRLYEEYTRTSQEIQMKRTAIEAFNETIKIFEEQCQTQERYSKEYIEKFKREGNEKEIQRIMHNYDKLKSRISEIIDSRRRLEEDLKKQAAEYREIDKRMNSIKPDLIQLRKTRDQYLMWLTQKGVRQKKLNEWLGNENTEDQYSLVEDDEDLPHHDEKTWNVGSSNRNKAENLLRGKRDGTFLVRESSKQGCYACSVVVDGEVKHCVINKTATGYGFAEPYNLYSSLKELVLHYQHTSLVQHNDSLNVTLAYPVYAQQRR
Sequence of p110α/p85α (P42336 whole entry): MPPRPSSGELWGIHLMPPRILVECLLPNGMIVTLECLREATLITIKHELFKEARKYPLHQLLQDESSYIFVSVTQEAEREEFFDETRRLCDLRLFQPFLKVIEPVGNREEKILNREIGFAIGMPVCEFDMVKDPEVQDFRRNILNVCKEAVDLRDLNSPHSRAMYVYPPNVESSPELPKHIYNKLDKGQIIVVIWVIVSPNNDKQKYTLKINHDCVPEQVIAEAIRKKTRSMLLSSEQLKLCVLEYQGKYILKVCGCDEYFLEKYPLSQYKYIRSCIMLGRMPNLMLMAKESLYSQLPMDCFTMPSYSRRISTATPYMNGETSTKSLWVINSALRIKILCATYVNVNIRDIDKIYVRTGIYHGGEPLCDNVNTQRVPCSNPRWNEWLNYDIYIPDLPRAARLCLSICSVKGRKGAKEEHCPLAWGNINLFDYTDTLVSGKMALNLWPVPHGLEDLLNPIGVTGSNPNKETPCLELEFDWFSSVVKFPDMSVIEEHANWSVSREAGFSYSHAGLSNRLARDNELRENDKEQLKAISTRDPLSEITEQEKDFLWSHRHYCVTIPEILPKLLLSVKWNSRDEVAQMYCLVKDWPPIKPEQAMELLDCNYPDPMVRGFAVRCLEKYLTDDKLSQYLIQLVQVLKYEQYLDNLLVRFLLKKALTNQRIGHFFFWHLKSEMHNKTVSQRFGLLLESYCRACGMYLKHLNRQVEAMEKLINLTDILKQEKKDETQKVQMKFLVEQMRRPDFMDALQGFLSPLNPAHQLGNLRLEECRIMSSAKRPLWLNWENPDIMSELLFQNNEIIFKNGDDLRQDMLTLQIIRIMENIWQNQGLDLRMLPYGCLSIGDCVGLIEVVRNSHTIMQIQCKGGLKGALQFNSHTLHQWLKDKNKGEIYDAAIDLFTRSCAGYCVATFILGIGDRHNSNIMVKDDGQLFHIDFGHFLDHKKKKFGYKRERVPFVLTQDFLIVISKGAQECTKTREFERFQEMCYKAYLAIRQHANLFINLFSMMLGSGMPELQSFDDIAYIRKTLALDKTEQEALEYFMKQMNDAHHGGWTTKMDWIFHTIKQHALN
Sequence of p110α/p85α (P27986 whole entry partner): as the sequence (P27986 whole entry partner) above
Sequence of p110δ/p85α (O00329 whole entry): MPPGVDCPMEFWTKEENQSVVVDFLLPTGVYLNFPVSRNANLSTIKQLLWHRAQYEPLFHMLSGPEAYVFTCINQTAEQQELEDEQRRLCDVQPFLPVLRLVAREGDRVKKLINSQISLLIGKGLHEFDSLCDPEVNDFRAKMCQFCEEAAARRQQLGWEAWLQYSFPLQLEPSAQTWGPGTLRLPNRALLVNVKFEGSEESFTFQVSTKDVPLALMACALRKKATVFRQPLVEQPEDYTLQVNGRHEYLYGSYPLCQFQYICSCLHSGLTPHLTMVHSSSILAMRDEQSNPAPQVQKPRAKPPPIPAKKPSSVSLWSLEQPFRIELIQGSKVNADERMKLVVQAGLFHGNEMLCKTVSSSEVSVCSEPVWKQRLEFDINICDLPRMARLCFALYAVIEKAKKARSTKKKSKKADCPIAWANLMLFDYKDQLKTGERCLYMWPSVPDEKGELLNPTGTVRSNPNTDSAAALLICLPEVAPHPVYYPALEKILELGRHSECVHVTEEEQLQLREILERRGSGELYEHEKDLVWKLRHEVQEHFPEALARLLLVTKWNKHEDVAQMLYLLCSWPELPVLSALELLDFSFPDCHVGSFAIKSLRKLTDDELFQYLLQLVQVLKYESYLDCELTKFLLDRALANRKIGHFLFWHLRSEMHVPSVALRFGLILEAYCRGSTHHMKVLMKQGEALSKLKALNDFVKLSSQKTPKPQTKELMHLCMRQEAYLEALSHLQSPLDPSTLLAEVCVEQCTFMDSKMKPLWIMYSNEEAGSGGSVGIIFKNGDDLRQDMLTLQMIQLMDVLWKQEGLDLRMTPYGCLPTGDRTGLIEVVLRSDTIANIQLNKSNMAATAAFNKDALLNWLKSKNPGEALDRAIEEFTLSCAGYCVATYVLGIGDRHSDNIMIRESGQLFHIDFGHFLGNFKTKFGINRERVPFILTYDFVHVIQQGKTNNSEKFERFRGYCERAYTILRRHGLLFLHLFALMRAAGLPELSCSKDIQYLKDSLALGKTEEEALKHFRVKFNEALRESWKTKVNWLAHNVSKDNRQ
Sequence of p110δ/p85α (P27986 whole entry partner): as the sequence (P27986 whole entry partner) above

SMILES | IC50 [4] [nM] | IC50 [5] [nM] | IC50 ([1]; read-out: PI3K α In Vitro IC50) [nM] | IC50 ([2]; read-out: PI3K γ In Vitro IC50) [nM] | IC50 [6] [nM] | IC50 ([1]; read-out: PI3K α IC50) [nM] | IC50 ([2]; read-out: PI3K γ IC50) [nM] | IC50 [3] [nM]
Nc1nc2cc(-c3ccc4nccn4c3)ccc2o1 [compound 40] | – | – | – | – | – | < 10000 | < 10000 | < 10000
N#Cc1cnc2ccc(-c3ccc4oc(N)nc4c3)cc2c1Cl [compound 77] | – | – | – | – | – | – | – | < 1000
N#Cc1cnc2ccc(-c3ccc4oc(N)nc4c3)cc2c1 [compound 93] | – | – | – | – | – | < 1000 | < 1000 | < 10000
CN(C(=O)c1cnc2ccc(-c3ccc4oc(N)nc4c3)cn12)C1CCOCC1 [compound 472] | < 10000 | < 10000 | < 100 | < 1000 | < 10000 | – | – | –
Nc1nc2cc(-c3ccc4ncc(C(=O)N5CC[C@H](n6cccn6)C5)n4c3)ccc2o1 [compound 478] | < 10000 | < 1000 | < 100 | < 1000 | < 1000 | – | – | –
C[C@@H]1CN(C2CN(C(=O)c3cnc4ccc(-c5ccc6oc(N)nc6c5)cn34)C2)CCN1C [compound 508] | < 10000 | < 1000 | < 100 | < 10000 | < 1000 | – | – | –
C[C@H]1CN(C2CN(C(=O)c3cnc4ccc(-c5ccc6oc(N)nc6c5)cn34)C2)CCN1 [compound 510] | < 10000 | < 1000 | < 100 | < 10000 | < 10000 | – | – | –
C[C@@H]1CN(C2CN(C(=O)c3cnc4ccc(-c5ccc6oc(N)nc6c5)cn34)C2)CCN1 [compound 511] | < 10000 | < 1000 | < 100 | < 10000 | < 10000 | – | – | –
C[C@H]1CN(C2CN(C(=O)c3cnc4ccc(-c5ccc6oc(N)nc6c5)cn34)C2)CCN1C [compound 512] | < 10000 | < 1000 | < 100 | < 10000 | < 1000 | – | – | –
CC1(C)CN(C2CN(C(=O)c3cnc4ccc(-c5ccc6oc(N)nc6c5)cn34)C2)CCN1 [compound 515] | < 10000 | < 100 | < 100 | < 1000 | < 1000 | – | – | –

The next lines start with results.

IC50 [4] [nM] | IC50 [5] [nM] | IC50 ([1]; read-out: PI3K α In Vitro IC50) [nM] | IC50 ([2]; read-out: PI3K γ In Vitro IC50) [nM] | IC50 [6] [nM] | SMILES | IC50 ([1]; read-out: PI3K α IC50) [nM] | IC50 ([2]; read-out: PI3K γ IC50) [nM] | IC50 [3] [nM]
< 100 | < 100 | < 100 | < 100 | < 1000 | O=C(c1cnc2ccc(-c3cnc(Cl)c(NS(=O)(=O)c4cccc(F)c4)c3)cn12)N1CCOCC1 [compound 458] | – | – | –
< 100 | < 100 | < 100 | < 100 | < 1000 | COc1ccc(-c2ccc3ncc(C(=O)N4CCOCC4)n3c2)cc1NS(=O)(=O)c1cccnc1 [compound 462] | – | – | –
< 10000 | < 10000 | < 100 | < 100 | < 1000 | COC1CN(C(=O)c2cnc3ccc(-c4ccc5oc(N)nc5c4)cn23)C1 [compound 467] | – | – | –
< 10000 | < 10000 | < 100 | < 1000 | < 10000 | Nc1nc2cc(-c3ccc4ncc(C(=O)N5CC(N6CC[C@H](O)C6)C5)n4c3)ccc2o1 [compound 469] | – | – | –
< 10000 | < 10000 | < 100 | < 1000 | < 10000 | Nc1nc2cc(-c3ccc4ncc(C(=O)N5CC(N6CC[C@@H](O)C6)C5)n4c3)ccc2o1 [compound 470] | – | – | –
< 100 | < 100 | < 100 | < 100 | < 1000 | COc1ncc(-c2ccc3ncn(C4CCN(C(C)C)CC4)c(=O)c3c2)cc1NS(=O)(=O)c1ccccc1 [compound 522] | – | – | –
< 1000 | < 100 | < 100 | < 100 | < 10000 | CC(C)N1CCC(n2cnc3ccc(-c4cnc(Cl)c(NS(C)(=O)=O)c4)cc3c2=O)CC1 [compound 523] | – | – | –
< 100 | < 100 | < 100 | < 1000 | < 1000 | COc1ncc(-c2ccc3ncn(C4CCN(C)CC4)c(=O)c3c2)cc1NS(=O)(=O)c1ccccc1 [compound 524] | – | – | –
